Experiments:
[1] = test system: HT-22 (mouse hippocampal neuronal cells); experiment: Cytotoxicity, PrestoBlue cell viability assay in HT-22 cells; format: cell-based; details: for effect on cell viability in HT-22 cells (in words): 0.1, 1, 10, 50, and 100 µM
Experimental: (§1) We assessed their cytotoxic effects at five concentrations (0.1, 1, 10, 50, and 100 µM) in HT-22 (mouse hippocampal neuronal cells) and BV-2 (mouse microglial cells) cell lines using a fluorometric assay with PrestoBlue™ cell viability reagent (Table 4, Table S2 in the SI).
(§2) Mouse microglial cells (BV-2) were a generous gift from Professor Bozena Kaminska-Kaczmarek of the Laboratory of Molecular Neurobiology, Neurobiology Center, Nencki Institute of Experimental Biology, Polish Academy of Sciences, Warsaw, Poland. Cells were cultured in Dulbecco’s modified Eagle’s Medium-high glucose (DMEM, Glutamx Thermo Fisher, Waltham, MA, USA) supplemented with 10% inactivated fetal bovine serum (Thermo Fisher), 100 IU/mL penicillin (Merck), and 100 µg/mL streptomycin (Merck). Cells were cultured in flasks (area 175 cm^2, Nunc) and incubated at 37 °C, 5% CO2. To evaluate the level of NO, IL-6, and TNF-α and the effectiveness of the compounds tested, BV-2 microglia cells were cultured in 96-well culture plates (5 × 10^4 cells per well, Falcon). For the measurement of cell viability and cell membrane damage, cells were placed in 96-well culture plates (2 × 10^4 cells per well, Falcon). Before the tests, cells were grown for 24 h in the incubator (37 °C, 5% CO2). Mouse Hippocampal Neuronal Cell Line (HT-22) was a generous gift from Dr Bartosz Pomierny of the Department of Biochemical Toxicology, Jagiellonian University Medical College, Krakow, Poland. Cells were cultured in Dulbecco’s modified Eagle’s Medium-high glucose (DMEM, Glutamx Thermo Fisher) supplemented with 10% inactivated fetal bovine serum (Thermo Fisher), 100 IU/mL penicillin (Merck), and 100 µg/mL streptomycin (Merck). Cells were cultured in flasks (area 175 cm^2, Nunc) and incubated at 37 °C, 5% CO2. For the measurement of cell viability and neuroprotective effects against okadaic acid, cells were placed in 96-well culture plates (2 × 10^4 cells per well, Falcon). Before the tests, cells were grown for 24 h in the incubator (37 °C, 5% CO2).
(§3) Cell viability was evaluated using the PrestoBlue reagent (Thermo Fisher), according to the manufacturer’s procedures. Following 24 h of incubation with the tested molecule, PrestoBlue reagent was added to a microplate well in an amount equal to one-tenth of the remaining medium volume. The resulting mixture was incubated for 15 min at 37 °C, and the fluorescence intensity (EX 530; EM 580 nm) was measured using the plate reader POLARstar Omega, (BMG Labtech, Ortenberg, Germany). The results (viability values) are provided as a percentage of live cells with respect to DMSO (control sample).
(§4) Cytotoxic effects of selected inhibitors in HT-22 mouse hippocampal neuronal cells and BV-2 mouse microglial cells
(§5) Table S2. Cytotoxic effects of selected inhibitors in HT-22 mouse hippocampal neuronal cells and BV-2 mouse microglial cells. neurotoxicity in HT-22 cellsa immunotoxicity in BV-2 cellsa […]
(§6) a % of cell viability at the given concentration of tested compound; mean value ± standard deviation (SD) of triplicates; b half maximal inhibitory concentration of the tested compound; mean value ± standard error of the mean (SEM) of triplicates; c data obtained in log C of 39 of -8.5; -7.5; -6.5; -5.5; -5, respectively; d data obtained in log C of 49 of -7.5; -6.5; -5.5; -4.5; -4. respectively; nt, not tested.

[2] = as above; format: cell-based, mouse; details: mouse, HT-22 hippocampal neuronal cells, 24 h; for viability at 24 h, 1 µM: 1 µM (log C -6); for viability at 24 h, 1 µM / viability at 24 h, 10 µM / viability at 24 h, 50 µM / viability at 24 h, 100 µM / viability at 24 h, 0.1 µM: read-out: neurotoxicity in HT-22 cells, % of cell viability; for viability at 24 h, 10 µM: 10 µM (log C -5); for viability at 24 h, 50 µM: 50 µM (log C -4.3); for viability at 24 h, 100 µM: 100 µM (log C -4); for IC50 at 24 h: PrestoBlue, mean ± SEM, read-out: Cytotoxicity in HT-22 Cells (IC50 x¯ ± SEM µM)
Experimental: as §1, §2, §3, §4, §5, §6

[3] = test system: IL-6 level, LPS-treated BV-2 cells; experiment: IL-6 level in LPS-treated BV-2 cells (LANCE Ultra TR-FRET); format: cell-based, mouse; details: LPS 100 ng/mL, 18 h
Text: (§7) Lipopolysaccharide (LPS) is a potent pro-inflammatory stimulus triggering the extensive production of inflammatory mediators, including cytokines and chemokines. Consequently, it finds widespread application in inducing in vitro and in vivo models of sepsis and inflammation, including neuroinflammation. In this study, we employed LPS in the BV-2 cell line and assessed the impact of the selected compounds on the levels of NO, IL-6, and TNF-α production (Figure 4B–D). […] Moreover, all compounds surpassed the reference compound in these assays.
(§8) The cells were pretreated with tested compounds for 1 h. After this time, lipopolysaccharide (100 ng/mL) was added and the resulting mixture was incubated for 18 h. Next, the culture supernatant was acquired to measure the levels of nitric oxide (NO), IL-6, and TNF-α, according to the following procedures.
IL-6 and TNF-α levels in the culture supernatants were measured using the LANCE Ultra TR-FRET Detection Kit (Perkin Elmer, Waltham, MA, USA), according to the manufacturer’s protocol. Each cytokine detection was performed separately in a 384-well plate, following the kit instructions. Samples were added at 15 μL/well to a 384-well plate and then premixed antibody solution was added at 5 μL/well. After 1 h of incubation of IL-6 and 3 h of incubation of TNF-α in the dark at 22 °C, the plates were read using an EnVision plate reader (Perkin Elmer) with the excitation wavelength at 320 nm, the donor emission were read at 615 nm, and the acceptor emission were read at 660 nm. The values of IL-6 and TNF-α levels were calculated as a percentage of control (maximal response of LPS).
(§9) Figure 4 (A) Results of the okadaic-acid-induced hyperphosphorylation assay. The HT-22 cells were pretreated for 3 h with okadaic acid (400 nM), and the tested compounds, at the increasing non-cytotoxic concentrations, were determined using a viability assay (or with the vehicle, 10 µM DMSO in the control sample). Cell viability was measured using the PrestoBlue^TM cell viability reagent. (B–D) Results of anti-inflammatory assays in LPS-treated (100 ng/mL) BV-2 cell line. The final compounds and references were tested at increasing non-cytotoxic concentrations and with DMSO as a control sample. NO release was measured using a fluorometric assay with 2,3-diaminonaphthalene (DAN). The IL-6 and TNF-α levels were measured using an LANCE Ultra TR-FRET Detection Kit (Perkin Elmer). Statistical analysis was performed using GraphPad Prism 9.0.0. All values are expressed as mean with SD. Differences among groups were evaluated using one-way ANOVA followed by post hoc analysis (Dunnett’s multiple comparison tests) and were considered statistically significant if p < 0.05 (* p < 0.05, ** p < 0.01, and **** p < 0.0001).

[4] = test system: NO release, LPS-treated BV-2 cells; experiment: NO release in LPS-treated BV-2 cells (DAN fluorometric assay); format: cell-based, mouse; details: LPS 100 ng/mL, 18 h
Text: as §7, §8
The NO level in the culture supernatants was measured using 2,3-diaminonaphthalene (DAN) reagent, according to the method of Nussler et al.. After 15 min of incubation at room temperature, the fluorescence intensity (EX 360; EM 440 nm) was measured using a microplate reader POLARstar Omega, (BMG Labtech). The values of nitric oxide were calculated as a percentage of control (maximal response of LPS).
as §9

In the case of CC1(C)NC(=O)c2sc(-c3ccnc(NC(=O)C4CC4)c3)cc2N1 [Compound 40, N-(4-(2,2-Dimethyl-4-oxo-1,2,3,4-tetrahydrothieno [3,2-d]pyrimidin-6-yl)pyridin-2-yl)-cyclopropanecarboxamide], the “effect on cell viability in HT-22 cells (in words)” value (from here on “effect on cell viability”) [1] is reported as “decreased cells’ viability”, the viability at 24 h, 1 µM [2] is reported as 105% and the viability at 24 h, 10 µM [2] is reported as 71%. The viability at 24 h, 50 µM [2] was 28%, the viability at 24 h, 100 µM [2] was 21% and the IC50 at 24 h [2] was 19.9 ± 4.1 µM. For the same molecule, the viability at 24 h, 0.1 µM [2] was 100%.

In the case of CC1(C)NC(=O)c2sc(-c3ccnc(NC(=O)C4CCC4)c3)cc2N1 [Compound 41, N-(4-(2,2-Dimethyl-4-oxo-1,2,3,4-tetrahydrothieno [3,2-d]pyrimidin-6-yl)pyridin-2-yl)-cyclobutanecarboxamide], the “effect on cell viability” value [1] is reported as “decreased cells’ viability”.

For O=C1NC2(CCOC2)Nc2cc(-c3ccnc(NC(=O)C4CC4)c3)sc21 (stereo not drawn) [Compound 62, N-(4-(4′-Oxo-3′,4,4′,5-tetrahydro-1′H,2H-spiro[furan-3,2′-thieno [3,2-d]pyrimidin]-6′-yl)pyridin-2-yl)cyclopropanecarboxamide], the “effect on cell viability” value [1] was “decreased cells’ viability”, the “effect on viability of HT-22 cells at concentrations up to 10 µM (in words)” value (“effect on viability of HT-22 cells” below) [1] was “did not decrease the viability of the cells” and the viability at 24 h, 1 µM [2] was 108%. It also gave a viability at 24 h, 10 µM [2] of 105%, a viability at 24 h, 50 µM [2] of 35% and a viability at 24 h, 100 µM [2] of 29%. For the same molecule, the IC50 at 24 h [2] was 58.3 ± 10 µM, the viability at 24 h, 0.1 µM [2] was 106% and the “IL-6 level (in words)” value ([3]; 10 µM) was “significantly decreased”. The “NO level (in words)” value ([4]; 1 µM) was “reduced NO levels” and the “NO level (in words)” value ([4]; 10 µM) was “significantly decreased”.

With CC(C)C(=O)Nc1cc(-c2cc3c(s2)C(=O)NC(C)(C)N3)ccn1 [Compound 39, N-(4-(2,2-Dimethyl-4-oxo-1,2,3,4-tetrahydrothieno [3,2-d]pyrimidin-6-yl)pyridin-2-yl)isobutyramide] the “effect on cell viability” value [1] was “decreased cells’ viability”, the viability at 24 h, 1 µM [2] was 84% and the viability at 24 h, 10 µM [2] was 55%. The viability at 24 h, 50 µM [2] was 35%, the viability at 24 h, 100 µM [2] was 29% and the IC50 at 24 h [2] was 8.4 ± 5.3 µM. The viability at 24 h, 0.1 µM [2] was 91%.

For NC(=O)Nc1cc(-c2cccc(NC(=O)C3CC3)c2)sc1C(N)=O [Compound 58, 5-(3-(Cyclopropanecarboxamido)phenyl)-3-ureidothiophene-2-carboxamide], the “effect on cell viability” value [1] was “decreased cells’ viability”, the “effect on viability of HT-22 cells” value [1] was “did not decrease the viability of the cells” and the viability at 24 h, 1 µM [2] was 92%. For the same molecule, the viability at 24 h, 10 µM [2] was 89%, the viability at 24 h, 50 µM [2] was 54% and the viability at 24 h, 100 µM [2] was 45%. The IC50 at 24 h [2] was 67.1 ± 14.5 µM and the viability at 24 h, 0.1 µM [2] was 94%.

In the case of NC(=O)Nc1cc(-c2ccnc(NC(=O)C3CC3)c2)sc1C(N)=O [Compound 49, 5-(2-(Cyclopropanecarboxamido)pyridin-4-yl)-3-ureidothiophene-2-carboxamide], the “effect on cell viability” value [1] is reported as “no significant decrease in cell viability”, the “effect on viability of HT-22 cells” value [1] is reported as “did not decrease the viability of the cells” and the viability at 24 h, 1 µM [2] is reported as 102%. The viability at 24 h, 10 µM [2] was 101%, the viability at 24 h, 50 µM [2] was 88% and the viability at 24 h, 100 µM [2] was 76%. For the same molecule, the IC50 at 24 h [2] was over 100 µM, the viability at 24 h, 0.1 µM [2] was 95% and the “IL-6 level (in words)” value ([3]; 1 µM) was “reduced IL-6 levels”. The “IL-6 level (in words)” value ([3]; 10 µM) was “significantly decreased” and the “NO level (in words)” value ([4]; 10 µM) was “significantly decreased”.

For O=C1NC2(CCCC2)Nc2cc(-c3ccnc(NC(=O)C4CC4)c3)sc21 [Compound 60, N-(4-(4’-Oxo-3’,4’-dihydro-1’H-spiro[cyclopentane-1,2’-thieno [3,2-d]pyrimidin]-6’-yl)pyridin-2-yl)cyclopropanecarboxamide], the “effect on cell viability” value [1] was “decreased cells’ viability”, the viability at 24 h, 1 µM [2] was 105% and the viability at 24 h, 10 µM [2] was 62%. It also gave a viability at 24 h, 50 µM [2] of 36%, a viability at 24 h, 100 µM [2] of 31% and an IC50 at 24 h [2] of 9.7 ± 5.8 µM. It also gave a viability at 24 h, 0.1 µM [2] of 101%.

In the case of CC(C)C(=O)Nc1cc(-c2cc(NC(N)=O)c(C(N)=O)s2)ccn1 [Compound 48, 5-(2-Isobutyramidopyridin-4-yl)-3-ureidothiophene-2-carboxamide], the “effect on cell viability” value [1] is reported as “decreased cells’ viability”, the viability at 24 h, 1 µM [2] is reported as 89% and the viability at 24 h, 10 µM [2] is reported as 77%. The viability at 24 h, 50 µM [2] was 52%, the IC50 at 24 h [2] was 36.6 ± 4.3 µM and the viability at 24 h, 0.1 µM [2] was 92%.

In the case of NC(=O)Nc1cc(-c2ccnc(NC(=O)C3CCC3)c2)sc1C(N)=O [Compound 50, 5-(2-(Cyclobutanecarboxamido)pyridin-4-yl)-3-ureidothiophene-2-carboxamide], the “effect on cell viability” value [1] is reported as “no significant decrease in cell viability”, the “IL-6 level (in words)” value ([3]; 10 µM) is reported as “significantly decreased” and the “NO level (in words)” value ([4]; 1 µM) is reported as “reduced NO levels”. The “NO level (in words)” value ([4]; 10 µM) was “significantly decreased”.

For COc1nc(-c2ccnc(NC(=O)C3CC3)c2)sc1C(N)=O [II, reference compound], the “effect on cell viability” value [1] was “decreased cells’ viability”, the viability at 24 h, 1 µM [2] was 104% and the viability at 24 h, 10 µM [2] was 87%. The viability at 24 h, 50 µM [2] was 77%, the viability at 24 h, 100 µM [2] was 64% and the IC50 at 24 h [2] was over 100 µM. It also gave a viability at 24 h, 0.1 µM [2] of 107%.
